Values quoted from earlier work as cited in patent US10925856B2, “Methods and compositions involving bucindolol for the treatment of atrial fibrillation” (priority 2018, dated 2021).
Like-named read-outs stand apart in the source and are kept apart here.

Test system: patients with HF and/or AF
Conditions: persistent AF recently converted to SR, cited from earlier work

In the case of CC(C)NCC(O)COc1ccc(COCCOC(C)C)cc1 (stereo not shown) [bisoprolol], the AF recurrence rate (Katritsis et al) is listed as 46% and the AF recurrence rate (Plewan et al) is listed as 42%.

For COc1ccccc1OCCNCC(O)COc1cccc2[nH]c3ccccc3c12 (stereo not shown) [carvedilol], the AF recurrence rate (Katritsis et al) is given as 32%.

For CC(C)NCC(O)c1ccc(NS(C)(=O)=O)cc1 (stereo not shown) [sotalol], the AF recurrence rate (Plewan et al) is listed as 41%.
